Source: ChEMBL document CHEMBL1139638, “Synthesis and biological evaluation of chalcones and their derived pyrazoles as potential cytotoxic agents” (Bioorg Med Chem Lett, 2005)
Several values for one entry are separate records, joined by “and”; a condition that tells them apart may be missing. Equal values may be shown once.

Legend:
HCT-15 = experiment: Antiproliferative activity against human colon cancer HCT-15 cell line; format: functional, cell-based
SiHa = experiment: Antiproliferative activity against human SIHA cell line; format: functional, cell-based
OVCAR-5 = experiment: Antiproliferative activity against human cancer OVCAR-5 cell line; format: functional, cell-based
HOP-62 = experiment: Antiproliferative activity against human cancer HOP-62 cell line; format: functional, cell-based
HEp-2 = experiment: Antiproliferative activity against human cancer Hep-2 cell line; format: functional, cell-based
HT-29 = experiment: Antiproliferative activity against Colon cancer HT-29 cell line; format: functional, cell-based, Homo sapiens
A549 = experiment: Antiproliferative activity against human cancer A-549 cell line; format: functional, cell-based
SW-620 [1] = experiment: Inhibitory concentration against human colon cancer SW-620 cell line; format: functional, cell-based
PC-3 = experiment: Antiproliferative activity against prostate cancer PC-3 cell line; format: functional, cell-based, Homo sapiens
DU-145 = experiment: Antiproliferative activity against human cancer DU-145 cell line; format: functional, cell-based
SNB-78 = experiment: Antiproliferative activity against human cancer SNB-78 cell line; format: functional, cell-based
SK-OV-3 = experiment: Antiproliferative activity against human cancer SKOV-3 cell line; format: functional, cell-based
SW-620 [2] = experiment: Antiproliferative activity against colon cancer SW-620 cell line; format: functional, cell-based; settings: Homo sapiens

Row | SMILES | IC50 (HCT-15) | IC50 (OVCAR-5; Homo sapiens, OVCAR-5) | IC50 (HT-29; Homo sapiens, HT-29) | IC50 (A549; Homo sapiens, A549) | IC50 (SW-620 [1]; Homo sapiens, SW-620) | IC50 (PC-3; Homo sapiens, PC-3) | IC50 (DU-145; Homo sapiens, DU-145) | IC50 (SiHa; Homo sapiens, SiHa) | IC50 (HOP-62; Homo sapiens, HOP-62) | IC50 (HEp-2) | IC50 (SNB-78; Homo sapiens, SNB-78) | other results
1 | COc1cc(/C=C/C(=O)c2cc(OC)c(OC)c(OC)c2)cc(OC)c1OC | 6.55 µM | 9.23 µM |  |  |  |  |  | 8.55 µM | 10 µM | 7.75 µM |  | 
2 | COc1ccc(C2NN=C(c3cc(OC)c(OC)c(OC)c3)C2O)cc1OC (stereo not drawn) | 12 µM | 8.76 µM | 8.43 µM | 10 µM | 8.63 µM |  |  |  | 10.7 µM |  |  | 
3 | COc1cc(-c2nn(C(C)=O)c(-c3ccc4c(c3)OCO4)c2OC(C)=O)cc(OC)c1OC | 8.9 µM |  | 15.6 µM |  |  | 18.1 µM | 48 µM | 58.1 µM | 18.4 µM | 61.6 µM | 33 µM | IC50 (SK-OV-3): 39.1 µM
4 | COc1cccc(C(=O)/C=C/c2cc(OC)c(OC)c(OC)c2)c1 | 4.9 µM | 9 µM | 7.08 µM | 8.07 µM |  | 11.6 µM | 14.9 µM | 10.9 µM | 10.1 µM | 13.7 µM | 10 µM | 
5 | COc1ccc(-c2cc(-c3cc(OC)c(OC)c(OC)c3)[nH]n2)cc1 |  | 9.54 µM |  |  | 5.15 µM | 15.8 µM | 24 µM | 15.9 µM |  |  |  | IC50 (PC-3; pc-3): 11.1 µM; IC50 (SiHa; siha): 14.5 µM; IC50 (HT-29; ht-29): 2.95 µM and 0.62 µM; IC50 (A549; a549): 4.35 µM and 1.01 µM; IC50 (DU-145; du-145): 27 µM; IC50 (OVCAR-5; ovcar-5): 7.85 µM; IC50 (HOP-62; hop-62): 4.81 µM and 0.65 µM; IC50 (SNB-78; snb-78): 21 µM and 50 µM; IC50 (SW-620 [1]; sw-620): 3.41 µM
6 | COc1ccc(-c2cc(-c3cc(OC)c(OC)c(OC)c3)nn2C(C)=O)cc1OC | 16 µM | 16.7 µM | 10.4 µM | 10 µM | 16.1 µM |  |  | 54.8 µM | 22.1 µM |  |  | 
7 | COc1cc(/C=C/C(=O)c2ccc(OC(C)=O)cc2)cc(OC)c1OC | 7.75 µM |  | 8.37 µM | 12 µM |  |  |  | 13.3 µM | 56.1 µM | 13.1 µM |  | 
8 | COc1cccc(C2NN=C(c3cc(OC)c(OC)c(OC)c3)C2O)c1 (stereo not drawn) | 7.85 µM | 7.05 µM | 5.95 µM | 7.2 µM | 7.35 µM | 28 µM |  |  | 8.1 µM |  |  | 
9 | COc1cc(-c2cc(-c3ccc(F)cc3)[nH]n2)cc(OC)c1OC | 0.48 µM | 6.45 µM | 4.75 µM | 3.8 µM | 5.9 µM | 8.93 µM | 3.87 µM | 1.08 µM | 0.56 µM | 3.81 µM | 22.4 µM | 
10 | COc1ccc(-c2cc(-c3cc(OC)c(OC)c(OC)c3)[nH]n2)cc1OC | 0.25 µM | 4.4 µM | 0.47 µM | 0.87 µM | 0.23 µM | 2.64 µM |  | 3.63 µM | 0.93 µM | 8.41 µM |  | 
11 | COc1ccc(C2NN=C(c3cc(OC)c(OC)c(OC)c3)C2O)cc1 (stereo not drawn) | 0.96 µM | 13 µM | 0.96 µM | 1.07 µM | 2.67 µM | 15.2 µM |  | 20.1 µM | 0.94 µM | 7.81 µM |  | 
12 | COc1cc(C(=O)/C=C/c2cc(OC)c(OC)c(OC)c2)ccc1O | 7.75 µM |  | 20.2 µM | 19.2 µM |  |  |  | 40.4 µM | 20.2 µM | 6.01 µM |  | 
13 | COc1cc(C(=O)/C=C/c2ccc3c(c2)OCO3)cc(OC)c1OC | 23.7 µM | 5.65 µM |  |  |  | 11.7 µM | 19.8 µM | 12.8 µM | 9.61 µM | 10.1 µM | 16.7 µM | 
14 | COc1cc(C(=O)/C=C/c2ccccc2)cc(OC)c1OC | 8.77 µM | 8.9 µM | 14.4 µM | 21.3 µM |  | 41.1 µM | 25.4 µM | 36.5 µM | 20.5 µM | 7.55 µM | 22.8 µM | IC50 (SK-OV-3): 21 µM; IC50 (SW-620 [2]): 16 µM
15 | COc1cc(C2=NNC(c3ccc4c(c3)OCO4)C2O)cc(OC)c1OC (stereo not drawn) |  | 6.81 µM | 5.89 µM | 6.74 µM | 6.75 µM | 34.5 µM | 34.7 µM | 43 µM | 20.3 µM | 40 µM | 53.7 µM | 
16 | COc1cc(C2=NNC(c3cc(OC)c(OC)c(OC)c3)C2O)cc(OC)c1OC (stereo not drawn) | 8.35 µM | 20.6 µM | 7.41 µM | 15.6 µM | 13.6 µM | 108 µM | 94.1 µM | 83 µM | 20.4 µM |  |  | 
17 | COc1cc(/C=C/C(=O)c2ccccc2)cc(OC)c1OC | 15.8 µM |  | 12 µM | 8.96 µM | 8.45 µM |  |  | 20.8 µM | 16.6 µM | 11.9 µM |  | IC50 (SK-OV-3): 56.5 µM
18 | COc1cc(C(=O)/C=C/c2ccc(F)cc2)cc(OC)c1OC | 11.7 µM | 18.3 µM |  |  |  | 11.7 µM | 13.3 µM | 7.92 µM | 24.7 µM | 10 µM | 13.8 µM | 

Continued by falling IC50 (HCT-15), values first:

Row | IC50 (HCT-15) | IC50 (OVCAR-5; Homo sapiens, OVCAR-5) | IC50 (HT-29; Homo sapiens, HT-29) | IC50 (A549; Homo sapiens, A549) | IC50 (SW-620 [1]; Homo sapiens, SW-620) | IC50 (PC-3; Homo sapiens, PC-3) | IC50 (DU-145; Homo sapiens, DU-145) | SMILES | IC50 (SiHa; Homo sapiens, SiHa) | IC50 (HOP-62; Homo sapiens, HOP-62) | IC50 (HEp-2) | IC50 (SNB-78; Homo sapiens, SNB-78) | other results
19 | 24 µM | 16.8 µM |  |  |  | 24.1 µM | 28.1 µM | COc1cc(C(=O)/C=C/c2ccc(Cl)cc2)cc(OC)c1OC | 40 µM | 26.9 µM | 12 µM | 25.4 µM | 
20 | 15.6 µM | 33 µM | 6.01 µM | 8.85 µM | 9.25 µM | 9.55 µM | 8.56 µM | COc1cc(-c2cc(-c3ccc4c(c3)OCO4)[nH]n2)cc(OC)c1OC | 10 µM | 13.5 µM | 34 µM | 74 µM | 
21 | 9.45 µM | 8.65 µM | 11.1 µM | 15.1 µM | 8.41 µM | 34.6 µM |  | COc1cc(C2=NNC(c3ccc(Cl)cc3)C2O)cc(OC)c1OC (stereo not drawn) | 56.4 µM | 20.4 µM |  |  | 
22 | 8.45 µM | 7.15 µM | 6.01 µM | 5.72 µM | 5.85 µM |  |  | COc1cc(C2=NNC(c3ccc(F)cc3)C2O)cc(OC)c1OC (stereo not drawn) |  | 6.55 µM |  |  | 
23 | 7.95 µM | 8.3 µM | 6.64 µM | 6.9 µM | 5.8 µM | 7.85 µM | 9.21 µM | COc1ccc(/C=C/C(=O)c2cc(OC)c(OC)c(OC)c2)cc1OC | 9.35 µM | 8.12 µM | 6.15 µM | 22.8 µM | IC50 (SK-OV-3): 6.09 µM
24 | 7.75 µM |  | 10.5 µM | 15.6 µM |  |  |  | COc1cc(C(=O)/C=C/c2cc(OC)c(OC)c(OC)c2)ccc1OC(C)=O | 33 µM | 9.2 µM | 6.95 µM |  | IC50 (SK-OV-3): 8.35 µM
25 | 6.45 µM | 8.61 µM | 8.09 µM | 15.8 µM | 4.96 µM |  |  | COc1cc(-c2cc(-c3ccc(Cl)cc3)[nH]n2)cc(OC)c1OC |  | 12.3 µM |  | 14 µM | 
26 | 6.01 µM | 9.95 µM | 5.62 µM | 7.58 µM | 10 µM | 13.3 µM | 35.1 µM | COc1cc(-c2cc(-c3cc(OC)c(OC)c(OC)c3)[nH]n2)cc(OC)c1OC | 25 µM |  | 6.43 µM | 22 µM | 
